Values after ≈ are worked out from the molar mass of the structure shown. Read-outs that look alike come from different tables or passages of the source.
How the values were obtained:
[1] = rat, in vivo, po; cited from earlier work
[2] = older adults, cited from earlier work
physchem = assay type: physicochemical
Description: There are different types of cyclodextrins available. For the purpose of this patent application, the cyclodextrin can be one or more the following—alpha cyclodextrin (alpha CD), beta cyclodextrin (beta CD), gamma cyclodextrin (gamma CD), hydroxypropyl beta cyclodextrin (HPBCD), sulfobutyl ether beta cyclodextrin (SBEBCD), and randomly methylated beta cyclodextrin. […] The concentration of cyclodextrin in the samples ranged from 0 mg/mL to 12.5 mg/mL.

[3] = humans; cited from earlier work
[4] = in vivo, cited from earlier work

Compound	LD50 [1]	Tmax ([2]; high dose (>2 mg)) [h]	Tmax ([2]; low dose (<0.5 mg)) [h]	increase of solubility in water (physchem) [%]	saturation solubility in water (physchem) [µg/mL]	solubility (physchem; water, thermodynamic from solid, saturation solubility in water) [µg/mL]	median lethal dose [3] [mg/kg]	apparent oral clearance ([4]; po) [mL/min]	elimination half-life [4] [h]	mean Cmax (maximum blood concentration) [4] [ng/mL]
COc1ccc2[nH]cc(CCNC(C)=O)c2c1 [Melatonin]	over 3200 mg/kg	1.5	1.3	~60	1750	~1750 (≈ 7.53 mM)				
CN(C)CCOC(C)(c1ccccc1)c1ccccn1 (stereo not shown) [Doxylamine succinate]							50 to 500	217	10.1	99
